From patent US10358454B2, “Marinopyrrole derivatives and methods of making and using same” (H. LEE MOFFITT CANCER CENTER AND RESEARCH INSTITUTE, INC., priority 2014, dated 2019)
Like-named read-outs stand apart in the source and are kept apart here.

Experiments:
[1] = test system: cultured human cancer cells; experiment: Induction of apoptosis in cultured human cancer cells; type: cell-based; conditions: intact cell studies
[2] = test system: MDA-MB-468 cells; experiment: Western blots of MDA-MB-468 cells treated with 1 and I-2 (Bcl-2 family proteins, Caspase 3 and PARP cleavage); type: cell-based, human
[3] = test system: A-549 xenografts; experiment: A-549 xenografts in nude mice; type: in vivo; conditions: 4 mpk/day for 14 days
[4] = test system: MDA-MB-468 cells; experiment: Soft agar assay (anchorage-independent growth); type: cell-based, human; conditions: 21 days, compared with 1
[5] = test system: A-549 human lung cancer cells; experiment: MTT assay (anchorage-dependent proliferation); type: cell-based; conditions: 48 hours, compared with 1
[6] = Stability in 1 M NaOH at room temperature, HPLC analysis; conditions: after 48 hours
[7] = target: Bcl-xL/Bim (Homo sapiens, UniProt Q07817); experiment: Bcl-xL/Bim ELISA (GST-Bcl-xL binding to biotinylated Bim BH3 peptide)
Chain of Bcl-xL/Bim (Q07817 whole entry): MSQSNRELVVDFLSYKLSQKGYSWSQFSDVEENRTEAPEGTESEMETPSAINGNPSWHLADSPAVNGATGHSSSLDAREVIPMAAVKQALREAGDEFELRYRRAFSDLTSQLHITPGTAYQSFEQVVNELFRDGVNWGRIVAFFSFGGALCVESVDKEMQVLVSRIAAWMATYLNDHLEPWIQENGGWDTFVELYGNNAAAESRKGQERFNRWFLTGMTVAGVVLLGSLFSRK
Outline: (§1)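 Compounds premixed 15 min with 10 nM GST-Mcl-1 or GST-Bcl-xL in PBS, then 2 h on wells coated with 40 nM biotinylated Bim BH3 peptide (streptavidin capture). Bound protein detected with HRP anti-GST (1 h) and TMB; absorbance at 450 nm after HCl stop.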

[8] = test system: Bim/Mcl-1 and Bim/Bcl-xL in MDA-MB-468 cancer cells; experiment: Co-immunoprecipitation and densitometry of Bim/Mcl-1 and Bim/Bcl-xL in treated cells; type: cell-based, human; conditions: compared with 1
[9] = test system: MDA-MB-468 cells; experiment: MTT assay (anchorage-dependent proliferation); type: cell-based, human; conditions: 48 hours, compared with 1
[10] = test system: A-549 human lung cancer cells; experiment: Soft agar assay (anchorage-independent growth); type: cell-based; conditions: 21 days, compared with 1
[11] = target: Mcl-1/Bim (Homo sapiens, UniProt Q07820); experiment: Mcl-1/Bim ELISA (GST-Mcl-1 binding to biotinylated Bim BH3 peptide)
Chain of Mcl-1/Bim (Q07820 whole entry): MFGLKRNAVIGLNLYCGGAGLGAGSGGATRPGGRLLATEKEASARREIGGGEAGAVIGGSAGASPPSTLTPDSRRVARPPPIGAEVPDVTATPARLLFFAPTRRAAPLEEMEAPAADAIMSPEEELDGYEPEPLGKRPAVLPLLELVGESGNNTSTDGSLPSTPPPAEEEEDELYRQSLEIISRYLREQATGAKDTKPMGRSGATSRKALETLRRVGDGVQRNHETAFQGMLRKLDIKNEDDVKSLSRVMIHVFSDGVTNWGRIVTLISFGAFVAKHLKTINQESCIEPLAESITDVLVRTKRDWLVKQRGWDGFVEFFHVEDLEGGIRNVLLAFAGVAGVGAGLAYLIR
Outline: as §1

remained intact [6]: 81%
activity against Bcl-xL/Bim in words [7]: more potent than 1
IC50 ([7]; Table 2-B, n ≥ 3 unless specified, read-out: Bcl-xL/Bim IC50 (average ± SEM)): 5.6 ± 0.5 µM
IC50 ([7]; Table 3-A structure I, Bcl-xL at 10 nM, n ≥ 3, read-out: Bcl-xL-Bim IC50 (average ± SEM)): 5.6 ± 0.5 µM
activity against Mcl-1/Bim in words [11]: more potent than 1
IC50 ([11]; Table 2-B, n ≥ 3, read-out: Mcl-1/Bim IC50 (average ± SEM)): 3.9 ± 0.2 µM
IC50 ([11]; Table 3-A structure I, Mcl-1 at 10 nM, n ≥ 3, read-out: Mcl-1-Bim IC50 (average ± SEM)): 3.9 ± 0.2 µM
selectivity profile Mcl-1 vs Bcl-xL in words ([11]; from Mcl-1/Bim and Bcl-xL/Bim ELISA): dual Mcl-1 and Bcl-XL antagonists
IC50 ([11]; read-out: IC50 to inhibit the binding of Mcl-1 to Bim): 3.7 µM
SMILES: C#Cc1ccc(C(=O)c2[nH]c(Cl)c(Cl)c2-n2c(C(=O)c3ccc(C#C)cc3O)cc(Cl)c2Cl)c(O)c1 [Compound 1-3, (4,4′,5,5′-Tetrachloro-1′H-1,3′-bipyrrole-2,2′-diyl)bis((4-ethynyl-2-hydroxyphenyl)methanone)]
induction of apoptosis [1]: induced apoptosis
effect on Bcl-2 and Bax levels [2]: little effects
effect on Bim level [2]: slightly decreased
decreasing levels of Mcl-1 and Bcl-xL and increasing levels of Bak and Bad ([2]; compared with 1): more potent than 1
inducing apoptosis (Caspase 3 and PARP cleavage) ([2]; compared with 1): more potent than 1
effect on the body weights of the mice [3]: little effect
increase of tumor volumes from day 1 to day 14 ([3]; vehicle-treated mice 160±10%): 45±30%
inhibiting anchorage-independent proliferation (soft agar) [4]: more potent than 1
inhibiting anchorage-dependent proliferation (MTT) [5]: more potent than 1
inhibition of binding of Mcl-1 and Bcl-xL to Bim in cells [8]: more potent than 1
inhibiting anchorage-dependent proliferation (MTT) [9]: more potent than 1
inhibiting anchorage-independent proliferation (soft agar) [10]: more potent than 1
